Entries after “also recorded” stand apart in the source; their conditions may differ.

These results are taken from patent KR20140041632A, “제주조릿대 잎 추출물 또는 그로부터 분리된 파라-쿠마르산을 이용한 비만 및 지방간 개선제 조성물” (제주대학교 산학협력단, priority 2014, dated 2014).

The test system of assay [1] is 3T3-L1 preadipocytes [3T3-L1 전구지방세포]. Kind of assay: Inhibition of differentiation of 3T3-L1 preadipocytes into adipocytes (Oil Red O). The class given is cell-based. The conditions noted are these: 3T3-L1, 100uM, treatment Day4 ~ Day8, Oil Red O 540nm; Fig. 11.
A further assay has as its system LKB1. Kind of assay: Western blot of p-LKB1 in differentiated 3T3-L1 adipocytes. The class given is cell-based. The conditions noted are these: Fig. 12.
The subject of assay [2] is AMPK. Kind of assay: Western blot of p-AMPK in differentiated 3T3-L1 adipocytes. The class given is cell-based. The note with it: Fig. 12.
The subject of assay [3] is ACC. Kind of assay: Western blot of p-ACC in differentiated 3T3-L1 adipocytes. The note with it: Fig. 12. The class given is cell-based.
The subject of assay [4] is AMPK. Kind of assay: Western blot of p-AMPK in differentiated L6 cells. The class given is cell-based, rat. The conditions noted are these: 48 h, Fig. 13.
Assay [5] deals with ACC. Nature of the assay: Western blot of p-ACC in differentiated L6 cells. The class given is cell-based, rat. The note with it: 48 h, Fig. 13.
Another assay relates to PPARα. Nature of the assay: Western blot of PPARα in differentiated L6 cells. The class given is cell-based, rat. The conditions noted are these: 48 h, vs control, Fig. 14.
In assay [6] the test system is AMPK. Nature of the assay: Western blot of p-AMPK in HepG2 cells with induced fat accumulation. The class given is cell-based. The note with it: HepG2, oleic acid 600uM, 24 h; Fig. 15.
Assay [7] relates to ACC. Kind of assay: Western blot of p-ACC in HepG2 cells with induced fat accumulation. The class given is cell-based. The conditions noted are these: HepG2, oleic acid 600uM, 24 h; Fig. 15.
Where [8] appears, read: several concentrations, vs control.

In the case of `O=C(O)/C=C/c1ccc(O)cc1` [p-쿠마르산, p-coumaric acid], in [1], the “TG content / triglyceride accumulation” value is “유의적으로 감소; also recorded: 중성지방의 축적을 억제”. Moreover, in the assay with LKB1, the LKB1 phosphorylation entry was “증가 and 농도 의존적으로 LKB1의 인산화, AMPK의 인산화 및 ACC의 인산화를 증가시킴”. The AMPK phosphorylation entry in the assay on AMPK [2] was “증가 and 농도 의존적으로 LKB1의 인산화, AMPK의 인산화 및 ACC의 인산화를 증가시킴”; in the assay with AMPK [4] (setting [8]), “농도의존적으로 증가; also recorded: 농도 의존적으로 AMPK 및 ACC의 인산화를 증가시킴”; with AMPK [6], “농도의존적으로 증가; also recorded: 농도 의존적으로 AMPK 및 ACC의 인산화를 증가시킴”. For the same compound, the ACC phosphorylation result in the assay with ACC [3] is “증가 and 농도 의존적으로 LKB1의 인산화, AMPK의 인산화 및 ACC의 인산화를 증가시킴”; in the assay with ACC [5] (setting [8]), “농도의존적으로 증가; also recorded: 농도 의존적으로 AMPK 및 ACC의 인산화를 증가시킴”; in the assay on ACC [7] it was “농도의존적으로 증가; also recorded: 농도 의존적으로 AMPK 및 ACC의 인산화를 증가시킴”. In addition, the “AMPK phosphorylation at highest concentration” value with AMPK [4] (50uM) is listed as “현저한 증가”. Also, the “ACC phosphorylation at highest concentration” value in the assay on ACC [5] (50uM) is “현저한 증가”. The PPARα expression entry in the assay with PPARα was “증가 and 농도 의존적으로 PPARα 발현을 증가시킴”.
